Test results: the supplement of paper PMC4862054

Assays:
Conditions in all cases: incubation time: 72 h
BT-549 [1] = assay: normalised response (% of control), CellTiter-Glo; higher = more viable cells (100 = DMSO, 0 = benzethonium chloride kill control)
Summary of the method: (§1)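 In 384-well plates holding compound at 5 concentrations in 10-fold steps over a 10,000-fold range specific to each compound, breast cancer cell lines were seeded as 20 µl suspension and incubated 72 h. CellTox Green fluorescence was measured at 485/520 nm, after which CellTiter-Glo luminescence was measured following 10 min at room temperature. Plate signals were normalised to 0.1 % DMSO (100) and a positive kill control (0), and each value is the normalised signal at a single concentration.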

MDA-MB-468 [2] = assay: as above
Summary of the method: as §1

MDA-MB-231 [3] = assay: as above
Summary of the method: as §1

DU-4475 [4] = assay: as above
Summary of the method: as §1

MCF-10A [5] = assay: as above
Summary of the method: as §1

HCC1143 [6] = assay: as above
Summary of the method: as §1

CAL-85-1 [7] = assay: as above
Summary of the method: as §1

MFM-223 [8] = assay: as above
Summary of the method: as §1

HCC1937 [9] = assay: as above
Summary of the method: as §1

HCC1599 [10] = assay: as above
Summary of the method: as §1

BT-474 [11] = assay: as above
Summary of the method: as §1

CAL-51 [12] = assay: as above
Summary of the method: as §1

SK-BR-3 = assay: as above
Summary of the method: as §1

CAL-120 [13] = assay: as above
Summary of the method: as §1

MDA-MB-436 [14] = assay: as above
Summary of the method: as §1

CAL-148 [15] = assay: as above
Summary of the method: as §1

Hs578T [16] = assay: as above
Summary of the method: as §1

HDQ-P1 [17] = assay: as above
Summary of the method: as §1

MDA-MB-453 [18] = assay: as above
Summary of the method: as §1

BT-549 [19] = assay: normalised response (% of control), CellTox Green; higher = less cell death (100 = DMSO, 0 = benzethonium chloride kill control)
Summary of the method: as §1

MDA-MB-468 [20] = assay: as above
Summary of the method: as §1

MDA-MB-231 [21] = assay: as above
Summary of the method: as §1

DU-4475 [22] = assay: as above
Summary of the method: as §1

MCF-10A [23] = assay: as above
Summary of the method: as §1

HCC1143 [24] = assay: as above
Summary of the method: as §1

CAL-85-1 [25] = assay: as above
Summary of the method: as §1

MFM-223 [26] = assay: as above
Summary of the method: as §1

HCC1937 [27] = assay: as above
Summary of the method: as §1

HCC1599 [28] = assay: as above
Summary of the method: as §1

BT-474 [29] = assay: as above
Summary of the method: as §1

CAL-51 [30] = assay: as above
Summary of the method: as §1

CAL-120 [31] = assay: as above
Summary of the method: as §1

MDA-MB-436 [32] = assay: as above
Summary of the method: as §1

CAL-148 [33] = assay: as above
Summary of the method: as §1

Hs578T [34] = assay: as above
Summary of the method: as §1

HDQ-P1 [35] = assay: as above
Summary of the method: as §1

MDA-MB-453 [36] = assay: as above
Summary of the method: as §1

Row | Structure (SMILES) | normalised response (BT-549 [1]) | normalised response (MDA-MB-468 [2]) | normalised response (MDA-MB-231 [3]) | normalised response (DU-4475 [4]) | normalised response (MCF-10A [5]) | normalised response (HCC1143 [6]) | normalised response (CAL-85-1 [7]) | normalised response (MFM-223 [8]) | normalised response (HCC1937 [9]) | normalised response (HCC1599 [10]) | normalised response (BT-474 [11]) | normalised response (CAL-51 [12]) | normalised response (SK-BR-3) | normalised response (CAL-120 [13]) | normalised response (MDA-MB-436 [14]) | normalised response (CAL-148 [15]) | normalised response (Hs578T [16]) | normalised response (HDQ-P1 [17]) | normalised response (MDA-MB-453 [18]) | normalised response (BT-549 [19]) | normalised response (MDA-MB-468 [20]) | normalised response (MDA-MB-231 [21]) | normalised response (DU-4475 [22]) | normalised response (MCF-10A [23]) | normalised response (HCC1143 [24]) | normalised response (CAL-85-1 [25]) | normalised response (MFM-223 [26]) | normalised response (HCC1937 [27]) | normalised response (HCC1599 [28]) | normalised response (BT-474 [29]) | normalised response (CAL-51 [30]) | normalised response (CAL-120 [31]) | normalised response (MDA-MB-436 [32]) | normalised response (CAL-148 [33]) | normalised response (Hs578T [34]) | normalised response (HDQ-P1 [35]) | normalised response (MDA-MB-453 [36])
1 | Oc1ncc(N(CCCl)CCCl)c(O)n1 [Uracil mustard] (10000 nM) | 97.9% | 101% | 95.6% | 99.4% | 101% | 105% | 103% | 104% | 98.9% | 115% | 99.5% | 78.5% | 100% | 107% | 99.1% | 107% | 98.3% | 98.1% | 89.4% | 94.2% | 133% | 101% | 100% | 123% | 115% | 95.4% | 100% | 98.4% | 99.1% | 107% | 97.5% | 107% | 97.6% | 104% | 135% | 83.4% | 98%
2 | CCCCC(=O)OCC(=O)[C@]1(O)Cc2c(O)c3c(c(O)c2[C@@H](O[C@H]2C[C@H](NC(=O)C(F)(F)F)[C@H](O)[C@H](C)O2)C1)C(=O)c1c(OC)cccc1C3=O [Valrubicin] (5000 nM) | 13.4% | 22.8% | 47.7% | 0.06% | 9.91% | 19.9% | 37% | 40.8% | 50.2% | 24.8% | 40.1% | 0.2% | 8.77% | 59.3% | 35.4% | 0.81% | 34.1% | 45.4% | 22.1% | 208% | 548% | 205% | 147% | 157% | 176% | 170% | 118% | 183% | 196% | 112% | 106% | 128% | 147% | 119% | 193% | 134% | 150%
